Where two headings read alike, the source gives them in different places.
Key:
[1] = system: Human venous whole blood; test: Human whole blood IFN-γ assay; format: cell-based; settings: human whole blood, read-out: INFg Whole Blood Normalized Agonist EC50;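 note: blood from healthy donors exposed to compound for 1 h before stimulation with anti-CD3 and anti-CD28 at 1 µg/mL each, IFN-γ quantified in supernatant by AlphaLISA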
Procedure: Human Whole Blood IFN-γ Assay
Human venous whole blood (22.5 μL per well), obtained from healthy donors, was pre-treated with compounds for one hour at 37° C. in a humidified 95% air/5% CO2 incubator. The blood was stimulated with 2.5 μL anti-human CD3 and anti-CD28 mAb at a final concentration of 1 μg/mL each for 24 hours at 37° C. IFN-γ in the supernatants was measured using AlphLISA kit (Cat # AL217).

[2] = target: T1, human DGKζ (Homo sapiens, UniProt Q13574); test: DGKζ LIPGLO assay (extruded liposome substrate), in vitro DGK inhibition; format: biochemical; settings: read-out: DGKz LIPGLO IC50
T1 construct: TVMV protease cleavage site (C); Hexa-His (C); made in house; host or cells: Sf9 insect cells (baculovirus, Bac-to-Bac)
T1 sequence (Q13574 with tags, fused parts or gaps isoform Q13574-4): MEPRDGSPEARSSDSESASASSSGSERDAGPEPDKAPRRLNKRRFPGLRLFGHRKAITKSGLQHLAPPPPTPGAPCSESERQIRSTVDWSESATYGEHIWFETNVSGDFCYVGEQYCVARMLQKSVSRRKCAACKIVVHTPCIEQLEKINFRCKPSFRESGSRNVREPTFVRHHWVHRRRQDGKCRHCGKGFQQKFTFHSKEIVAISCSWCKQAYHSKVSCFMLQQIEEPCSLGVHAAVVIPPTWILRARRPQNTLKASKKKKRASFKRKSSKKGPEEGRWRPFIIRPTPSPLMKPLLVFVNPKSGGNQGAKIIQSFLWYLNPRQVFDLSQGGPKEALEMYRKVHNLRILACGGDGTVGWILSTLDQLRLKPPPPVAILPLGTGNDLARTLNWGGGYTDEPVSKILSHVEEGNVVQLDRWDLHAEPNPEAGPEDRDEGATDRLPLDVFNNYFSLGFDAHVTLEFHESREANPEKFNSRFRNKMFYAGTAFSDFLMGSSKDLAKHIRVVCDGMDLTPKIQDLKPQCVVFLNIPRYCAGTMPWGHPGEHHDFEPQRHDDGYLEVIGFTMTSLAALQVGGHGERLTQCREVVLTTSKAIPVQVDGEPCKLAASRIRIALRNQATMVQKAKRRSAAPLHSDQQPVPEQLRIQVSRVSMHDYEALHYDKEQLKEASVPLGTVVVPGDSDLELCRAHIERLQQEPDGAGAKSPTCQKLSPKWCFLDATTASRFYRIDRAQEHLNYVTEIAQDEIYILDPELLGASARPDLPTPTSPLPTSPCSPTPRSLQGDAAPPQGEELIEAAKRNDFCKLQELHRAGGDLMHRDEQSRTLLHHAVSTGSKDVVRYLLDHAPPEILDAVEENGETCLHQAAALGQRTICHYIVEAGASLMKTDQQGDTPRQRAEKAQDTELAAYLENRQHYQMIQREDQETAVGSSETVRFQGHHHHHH

[3] = target: T2, human DGKα (Homo sapiens, UniProt P23743); test: DGKα LIPGLO assay (extruded liposome substrate), in vitro DGK inhibition; format: biochemical; settings: read-out: DGKa LIPGLO IC50
T2 construct: TVMV protease cleavage site (C); Hexa-His (C); made in house; host or cells: Sf9 insect cells (baculovirus, Bac-to-Bac)
T2 sequence (P23743 with tags, fused parts or gaps): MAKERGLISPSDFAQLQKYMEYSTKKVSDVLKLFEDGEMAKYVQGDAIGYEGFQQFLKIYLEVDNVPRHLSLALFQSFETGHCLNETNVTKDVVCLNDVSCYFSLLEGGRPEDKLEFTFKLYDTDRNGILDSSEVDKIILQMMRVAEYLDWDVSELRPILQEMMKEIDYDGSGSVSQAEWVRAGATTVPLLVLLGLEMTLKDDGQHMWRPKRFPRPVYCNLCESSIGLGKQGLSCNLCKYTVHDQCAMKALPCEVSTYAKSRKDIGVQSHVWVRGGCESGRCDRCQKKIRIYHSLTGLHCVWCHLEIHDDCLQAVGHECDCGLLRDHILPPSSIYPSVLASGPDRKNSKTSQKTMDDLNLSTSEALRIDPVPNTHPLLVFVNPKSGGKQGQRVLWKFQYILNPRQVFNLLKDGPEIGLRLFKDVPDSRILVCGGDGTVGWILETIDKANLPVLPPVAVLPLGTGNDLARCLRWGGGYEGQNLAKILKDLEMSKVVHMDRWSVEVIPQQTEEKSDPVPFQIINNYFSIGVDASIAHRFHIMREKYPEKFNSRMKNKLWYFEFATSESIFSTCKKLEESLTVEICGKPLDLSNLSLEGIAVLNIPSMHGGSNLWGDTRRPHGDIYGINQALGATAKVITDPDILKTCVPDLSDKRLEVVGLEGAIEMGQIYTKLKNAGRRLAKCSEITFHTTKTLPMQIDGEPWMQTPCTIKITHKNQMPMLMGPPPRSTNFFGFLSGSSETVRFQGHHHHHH

[4] = normalized to 3 μM reference compound with anti-CD3 plus anti-CD28 as 100% activation
[5] = anti-CD3 plus anti-CD28, 24 hours, 3 μM reference compound = 100% activation
[6] = Homo sapiens, 24 h, normalized to 3 μM reference compound with anti-CD3 plus anti-CD28 as 100% activation
[7] = Homo sapiens, 24 h, anti-CD3 plus anti-CD28, 24 hours, 3 μM reference compound = 100% activation

CCC(c1ccc(OC(F)(F)F)cc1F)N1C[C@H](C)N(c2cc(=O)n(C)c3ccc(C#N)nc23)C[C@H]1C (single isomer, unassigned) [Example 441]
EC50 [1, 4]: 7.9 µM | IC50 ([2]; liposome (LIPGLO) assay): 2.4 µM | IC50 ([3]; liposome (LIPGLO) assay): 1.5 µM

Cc1ccc(C(c2ccc(F)cn2)N2CCN(c3c(C#N)c(=O)n(C)c4ccc(C#N)nc34)C[C@H]2C)cc1 (stereo partly drawn) [Example 898]
EC50 [1, 5]: 0.48 µM | IC50 ([2]; DGKζ liposome (LIPGLO) assay): 0.7 µM | IC50 ([3]; DGKα liposome (LIPGLO) assay): 0.34 µM

CC[C@@H]1CN(c2cc(=O)n(C)c3ccc(C#N)nc23)[C@@H](C)CN1C(C)c1ccc(F)cc1 (single isomer, unassigned) [Example 1083]
EC50 [1, 4]: 0.075 µM | IC50 ([2]; liposome (LIPGLO) assay): 0.079 µM | IC50 ([3]; liposome (LIPGLO) assay): 0.037 µM

C[C@@H]1CN(c2cc(=O)n(C)c3ccc(C#N)nc23)[C@@H](C)CN1C(c1ccc(F)cc1)C(F)(F)CO (single isomer, unassigned) [Example 1311]
EC50 [1, 6]: 11 µM | IC50 ([2]; liposome (LIPGLO) assay): 19 µM | IC50 ([3]; liposome (LIPGLO) assay): 120 µM

C[C@@H]1CN(c2cc(=O)n(C)c3ccc(C#N)nc23)[C@@H](C)CN1C(c1ccccn1)c1ccc(F)cc1F (single isomer, unassigned) [Example 683]
EC50 [1, 4]: 1.5 µM | IC50 ([2]; liposome (LIPGLO) assay): 23 µM | IC50 ([3]; liposome (LIPGLO) assay): 0.47 µM

CC[C@@H]1CN(c2cc(=O)n(C)c3ccc(C#N)nc23)[C@@H](C)CN1C(c1ccc(F)cc1)c1ccc(C(F)(F)F)cn1 (single isomer, unassigned) [Example 1107]
EC50 [1, 4]: 0.077 µM | IC50 ([2]; liposome (LIPGLO) assay): 0.13 µM | IC50 ([3]; liposome (LIPGLO) assay): 0.065 µM

Cc1ccc(C(c2cccc(F)c2)N2C[C@H](C)N(c3cc(=O)n(C)c4ccc(C#N)nc34)C[C@H]2C)cn1 (stereo partly drawn) [Example 417, 8-((2S,5R)-4-((3-fluorophenyl)(6-methylpyridin-3-yl)methyl)-2,5-dimethylpiperazin-1-yl)-5-methyl-6-oxo-5,6-dihydro-1,5-naphthyridine-2-carbonitrile]
EC50 [1, 4]: 7.7 µM | IC50 ([2]; liposome (LIPGLO) assay): 11 µM | IC50 ([3]; liposome (LIPGLO) assay): 20 µM

CC[C@H]1CN(Cc2ccc3c(c2)OC(F)(F)O3)[C@H](COC)CN1c1cc(=O)n(C)c2ccc(C#N)nc12 [Example 1407]
EC50 [1, 6]: 4.4 µM | IC50 ([2]; liposome (LIPGLO) assay): 0.35 µM | IC50 ([3]; liposome (LIPGLO) assay): 7.1 µM

CC[C@@H]1CN(c2cc(=O)n(C)c3ccc(C#N)nc23)[C@@H](C)CN1Cc1ccc(OC(F)(F)F)cc1OC [Example 1081]
EC50 [1, 6]: 0.25 µM | IC50 ([2]; liposome (LIPGLO) assay): 0.68 µM | IC50 ([3]; liposome (LIPGLO) assay): 1.5 µM

CC[C@H]1CN(C(C)c2ccc(OC(F)(F)F)cc2)[C@H](C)CN1c1cc(=O)n(C)c2ccc(C#N)nc12 (single isomer, unassigned) [Example 1142]
EC50 [1, 4]: 1.2 µM | IC50 ([2]; liposome (LIPGLO) assay): 1.6 µM | IC50 ([3]; liposome (LIPGLO) assay): 0.7 µM

C[C@@H]1CN(c2cc(=O)n(C)c3ccc(C#N)nc23)[C@@H](C)CN1C(c1ccc(F)cc1)c1cc(C(C)(C)C)on1 (single isomer, unassigned) [Example 731]
EC50 [1, 5]: 0.95 µM | IC50 ([2]; DGKζ liposome (LIPGLO) assay): 0.33 µM | IC50 ([3]; DGKα liposome (LIPGLO) assay): 8.5 µM

CC[C@H]1CN(C(C)c2ccc(F)cc2F)[C@H](C)CN1c1cc(=O)n(C)c2ccc(C#N)nc12 (single isomer, unassigned) [Example 1137]
EC50 [1, 4]: 0.29 µM | IC50 ([2]; liposome (LIPGLO) assay): 0.045 µM | IC50 ([3]; liposome (LIPGLO) assay): 0.026 µM

CC[C@@H]1CN(c2cc(=O)n(C)c3ccc(C#N)nc23)[C@@H](CC)CN1Cc1ccc(OC(F)(F)F)cc1 [Example 1363]
EC50 [1, 6]: 0.43 µM | IC50 ([2]; liposome (LIPGLO) assay): 0.55 µM | IC50 ([3]; liposome (LIPGLO) assay): 0.045 µM

CC[C@H]1CN(C(c2ccc(F)cc2)c2cccc(C(F)(F)F)n2)[C@H](C)CN1c1cc(=O)n(C)c2ccc(C#N)nc12 (single isomer, unassigned) [Example 1134]
EC50 [1, 4]: 0.34 µM | IC50 ([2]; liposome (LIPGLO) assay): 0.13 µM | IC50 ([3]; liposome (LIPGLO) assay): 0.36 µM

COc1cc(OC(F)(F)F)ccc1CN1C[C@H](C)N(c2cc(=O)n(C)c3ccc(C#N)nc23)C[C@H]1C [Example 352, 8-((2S,5R)-4-(2-methoxy-4-(trifluoromethoxy)benzyl)-2,5-dimethylpiperazin-1-yl)-5-methyl-6-oxo-5,6-dihydro-1,5-naphthyridine-2-carbonitrile]
EC50 [1, 6]: 0.79 µM | IC50 ([2]; liposome (LIPGLO) assay): 1.7 µM | IC50 ([3]; liposome (LIPGLO) assay): 0.52 µM

C[C@@H]1CN(c2c(C#N)c(=O)n(C)c3ccc(C#N)nc23)CCN1C(c1cccc(F)c1)c1ccc(F)cn1 (single isomer, unassigned) [Example 911]
EC50 [1, 5]: 0.34 µM | IC50 ([2]; DGKζ liposome (LIPGLO) assay): 1.2 µM | IC50 ([3]; DGKα liposome (LIPGLO) assay): 0.69 µM

C[C@@H]1CN(c2cc(=O)n(C)c3ccc(C#N)nc23)[C@@H](C)CN1C(c1c(F)cc(O)cc1F)C(F)(F)F (single isomer, unassigned) [Example 628]
EC50 [1, 4]: 4.8 µM | IC50 ([2]; liposome (LIPGLO) assay): 7.4 µM | IC50 ([3]; liposome (LIPGLO) assay): 5.9 µM

CC(c1ccc(OC(F)(F)F)cc1F)N1C[C@H](C)N(c2cc(=O)n(C)c3ccc(C#N)nc23)C[C@H]1C (single isomer, unassigned) [Example 442]
EC50 [1, 4]: 7.5 µM | IC50 ([2]; liposome (LIPGLO) assay): 1.8 µM | IC50 ([3]; liposome (LIPGLO) assay): 1.4 µM

C[C@@H]1CN(c2cc(=O)n(C)c3ccc(C#N)nc23)[C@@H](C)CN1Cc1cccc2c1ccn2C [Example 606]
EC50 [1, 6]: 1.1 µM | IC50 ([2]; liposome (LIPGLO) assay): 0.066 µM | IC50 ([3]; liposome (LIPGLO) assay): 5.2 µM

C[C@@H]1CN(c2c(C#N)c(=O)n(C)c3ccc(C#N)nc23)CCN1Cc1cccc(-c2ccccc2)c1 [Example 1004]
EC50 [1, 7]: 3.5 µM | IC50 ([2]; DGKζ liposome (LIPGLO) assay): 11 µM | IC50 ([3]; DGKα liposome (LIPGLO) assay): 3.9 µM

C[C@@H]1CN(c2c(C#N)c(=O)n(C)c3ccc(C#N)nc23)[C@@H](C)CN1C(c1ccccc1)c1ccc(F)cc1 (stereo partly drawn) [Example 808]
EC50 [1, 5]: 1.3 µM | IC50 ([2]; DGKζ liposome (LIPGLO) assay): 1.6 µM | IC50 ([3]; DGKα liposome (LIPGLO) assay): 4.2 µM

COc1cc(F)ccc1C(C)N1C[C@H](C)N(c2cc(=O)n(C)c3ccc(C#N)nc23)C[C@H]1C (single isomer, unassigned) [Example 1237]
EC50 [1, 4]: 12 µM | IC50 ([2]; liposome (LIPGLO) assay): 0.58 µM | IC50 ([3]; liposome (LIPGLO) assay): 6.1 µM

CC(c1cccc(C(F)(F)F)n1)N1C[C@H](C)N(c2cc(=O)n(C)c3ccc(C#N)nc23)C[C@H]1C (single isomer, unassigned) [Example 637]
EC50 [1, 4]: 10 µM | IC50 ([2]; liposome (LIPGLO) assay): 0.84 µM | IC50 ([3]; liposome (LIPGLO) assay): 0.17 µM

C[C@@H]1CN(c2c(C#N)c(=O)n(C)c3ccc(C#N)nc23)CCN1C(c1ccc(F)cc1)c1ccc(F)cc1F (single isomer, unassigned) [Example 947]
EC50 [1, 7]: 0.34 µM | IC50 ([2]; DGKζ liposome (LIPGLO) assay): 0.27 µM | IC50 ([3]; DGKα liposome (LIPGLO) assay): 2 µM

CC(c1ccc(OC(F)(F)F)cc1)N1C[C@H](C)N(c2cc(=O)n(C)c3ccc(C#N)nc23)C[C@H]1CN(C)C (single isomer, unassigned) [Example 1414]
EC50 [1, 6]: 10 µM | IC50 ([2]; liposome (LIPGLO) assay): 4.9 µM | IC50 ([3]; liposome (LIPGLO) assay): 40 µM

COC[C@@H]1CN(c2cc(=O)n(C)c3ccc(C#N)nc23)[C@@H](C)CN1C(c1ccc(F)cc1)c1nc(C2CC2)cs1 (single isomer, unassigned) [Example 1396]
EC50 [1, 4]: 0.026 µM | IC50 ([2]; liposome (LIPGLO) assay): 0.012 µM | IC50 ([3]; liposome (LIPGLO) assay): 0.062 µM

CC(=O)N1CC(c2noc(C(c3ccc(F)cc3)N3C[C@H](C)N(c4cc(=O)n(C)c5ccc(C#N)nc45)C[C@H]3C)n2)C1 (single isomer, unassigned) [Example 1296]
EC50 [1, 6]: 20 µM | IC50 ([2]; liposome (LIPGLO) assay): 5 µM | IC50 ([3]; liposome (LIPGLO) assay): 2.4 µM

Cc1ccc(C(c2ccc(Cl)cc2)N2C[C@H](C)N(c3cc(=O)n(C)c4ccc(C#N)nc34)C[C@H]2C)nc1 (single isomer, unassigned) [Example 365]
EC50 [1, 4]: 0.36 µM | IC50 ([2]; liposome (LIPGLO) assay): 0.77 µM | IC50 ([3]; liposome (LIPGLO) assay): 0.27 µM

CC[C@H]1CN(C(C)c2ccc(C3CC3)cc2F)[C@H](CC)CN1c1cc(=O)n(C)c2ccc(C#N)nc12 (single isomer, unassigned) [Example 1358]
EC50 [1, 6]: 1.2 µM | IC50 ([2]; liposome (LIPGLO) assay): 0.68 µM | IC50 ([3]; liposome (LIPGLO) assay): 1.7 µM

CC(c1cc(OC(F)F)ccc1F)N1C[C@H](C)N(c2cc(=O)n(C)c3ccc(C#N)nc23)C[C@H]1C (single isomer, unassigned) [Example 1229]
EC50 [1, 6]: 0.51 µM | IC50 ([2]; liposome (LIPGLO) assay): 0.16 µM | IC50 ([3]; liposome (LIPGLO) assay): 0.3 µM

C[C@@H]1CN(c2c(C#N)c(=O)n(C)c3ccc(C#N)nc23)CCN1C(c1cccc(F)c1)c1ccc(C(F)(F)F)cn1 (single isomer, unassigned) [Example 949]
EC50 [1, 5]: 20 µM | IC50 ([2]; DGKζ liposome (LIPGLO) assay): 1.1 µM | IC50 ([3]; DGKα liposome (LIPGLO) assay): 6.6 µM

CC[C@H]1CN(C(C)c2ccc(OC(F)(F)F)cc2F)[C@H](CC)CN1c1cc(=O)n(C)c2ccc(C#N)nc12 (single isomer, unassigned) [Example 1371]
EC50 [1, 4]: 0.15 µM | IC50 ([2]; liposome (LIPGLO) assay): 0.058 µM | IC50 ([3]; liposome (LIPGLO) assay): 0.021 µM

C[C@@H]1CN(c2c(C#N)c(=O)n(C)c3ccc(C#N)nc23)CCN1C(c1ccc(F)cc1)c1ccc(C#N)cc1 (single isomer, unassigned) [Example 920]
EC50 [1, 5]: 1.9 µM | IC50 ([2]; DGKζ liposome (LIPGLO) assay): 13 µM | IC50 ([3]; DGKα liposome (LIPGLO) assay): 4.9 µM

C[C@@H]1CN(C(c2ccc(F)cc2)c2ccc(F)cc2)[C@@H](CO)CN1c1cc(=O)n(C)c2ccc(C#N)nc12 [Example 1172, 8-((2R,5R)-4-(bis(4-fluorophenyl)methyl)-5-(hydroxymethyl)-2-methylpiperazin-1-yl)-5-methyl-6-oxo-5,6-dihydro-1,5-naphthyridine-2-carbonitrile]
EC50 [1, 6]: 0.42 µM | IC50 ([2]; liposome (LIPGLO) assay): 3.2 µM | IC50 ([3]; liposome (LIPGLO) assay): 22 µM

CCC(c1ccc(OC(C)(C)C)cc1)N1C[C@H](C)N(c2cc(=O)n(C)c3ccc(C#N)nc23)C[C@H]1C (single isomer, unassigned) [Example 1443]
EC50 [1, 6]: 0.81 µM | IC50 ([2]; liposome (LIPGLO) assay): 0.24 µM | IC50 ([3]; liposome (LIPGLO) assay): 0.056 µM
